{"source": "ChEMBL document CHEMBL1201862", "about": "“PubChem BioAssay data set” (2004)", "assay_in_all_cases": "growth of human tumour cells (NCI), 48 h", "key": {"[1]": {"test_system": "MCF7"}, "[2]": {"test_system": "HCT-15"}, "[3]": {"test_system": "OVCAR-3"}, "[4]": {"test_system": "SR"}, "[5]": {"test_system": "PC-3"}, "[6]": {"test_system": "LOX IMVI"}, "[7]": {"test_system": "CCRF-CEM"}, "[8]": {"test_system": "NCI-H460"}, "[9]": {"test_system": "CAKI-1"}, "[10]": {"test_system": "MDA-MB-435"}, "[11]": {"test_system": "Malme-3M"}, "[12]": {"test_system": "UACC-257"}, "[13]": {"test_system": "HCT-116"}, "[14]": {"test_system": "SW-620"}, "[15]": {"test_system": "NCI-H522"}, "[16]": {"test_system": "OVCAR-5"}, "[17]": {"test_system": "A549"}, "[18]": {"test_system": "K562"}, "[19]": {"test_system": "SK-MEL-28"}, "[20]": {"test_system": "DU-145"}, "[21]": {"test_system": "EKVX"}, "[22]": {"test_system": "SK-MEL-5"}, "[23]": {"test_system": "M14"}, "[24]": {"test_system": "SK-OV-3"}, "[25]": {"test_system": "SN12C"}, "[26]": {"test_system": "IGROV-1"}, "[27]": {"test_system": "NCI/ADR-RES"}, "[28]": {"test_system": "COLO 205"}, "[29]": {"test_system": "HT-29"}, "[30]": {"test_system": "TK-10"}, "[31]": {"test_system": "NCI-H23"}, "[32]": {"test_system": "MDA-MB-231"}, "[33]": {"test_system": "RPMI-8226"}, "[34]": {"test_system": "HL-60"}, "[35]": {"test_system": "OVCAR-8"}, "[36]": {"test_system": "MDA-N"}, "[37]": {"test_system": "SNB-19"}, "[38]": {"test_system": "UACC-62"}, "[39]": {"test_system": "T47D"}, "[40]": {"test_system": "SF-268"}, "[41]": {"test_system": "MOLT-4"}, "[42]": {"test_system": "ACHN"}, "[43]": {"test_system": "UO-31"}, "[44]": {"test_system": "RXF 393"}, "[45]": {"test_system": "KM12"}, "[46]": {"test_system": "U-251"}, "[47]": {"test_system": "786-0"}, "[48]": {"test_system": "SF-295"}, "[49]": {"test_system": "A498"}, "[50]": {"test_system": "HOP-62"}, "[51]": {"test_system": "HCC 2998"}, "[52]": {"test_system": "BT-549"}, "[53]": {"test_system": "OVCAR-4"}, "[54]": {"test_system": "HOP-92"}, "[55]": {"test_system": "SF-539"}, "[56]": {"test_system": "Hs-578T"}, "[57]": {"test_system": "NCI-H226"}}, "note": "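Tested at 5 concentrations; 48 h exposure; 96-well plates; endpoints linearly interpolated, else capped at highest concentration. GI50: concentration for 50% inhibition of growth.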 Activity calls are given as the source filed them. Cut-off read from the data, not from the text of the source: active = GI50 up to about 1.1 µM and inactive = higher.", "data": [{"compound": "COc1ccc(OC)c(/C=C/c2ccnc3ccccc23)c1", "values": [{"measurement": "GI50", "setting": "[1]", "value": "851 nM (active)"}, {"measurement": "GI50", "setting": "[2]", "value": 372, "unit": "nM"}, {"measurement": "GI50", "setting": "[3]", "value": "269 nM (active)"}, {"measurement": "GI50", "setting": "[4]", "value": "277 nM (active)"}, {"measurement": "GI50", "setting": "[5]", "value": "514 nM (active)"}, {"measurement": "GI50", "setting": "[6]", "value": "365 nM (active)"}, {"measurement": "GI50", "setting": "[7]", "value": "337 nM (active)"}, {"measurement": "GI50", "setting": "[8]", "value": "371 nM (active)"}, {"measurement": "GI50", "setting": "[9]", "value": "1.28 µM (inactive)"}, {"measurement": "GI50", "setting": "[10]", "value": "167 nM (active)"}, {"measurement": "GI50", "setting": "[11]", "value": "2.07 µM (inactive)"}, {"measurement": "GI50", "setting": "[12]", "value": "513 nM (active)"}, {"measurement": "GI50", "setting": "[13]", "value": "377 nM (active)"}, {"measurement": "GI50", "setting": "[14]", "value": "366 nM (active)"}, {"measurement": "GI50", "setting": "[15]", "value": "281 nM (active)"}, {"measurement": "GI50", "setting": "[16]", "value": "2.43 µM (inactive)"}, {"measurement": "GI50", "setting": "[17]", "value": "735 nM (active)"}, {"measurement": "GI50", "setting": "[18]", "value": "191 nM (active)"}, {"measurement": "GI50", "setting": "[19]", "value": "574 nM (active)"}, {"measurement": "GI50", "setting": "[20]", "value": "525 nM (active)"}, {"measurement": "GI50", "setting": "[21]", "value": "463 nM (active)"}, {"measurement": "GI50", "setting": "[22]", "value": "272 nM (active)"}, {"measurement": "GI50", "setting": "[23]", "value": "375 nM (active)"}, {"measurement": "GI50", "setting": "[24]", "value": "403 nM (active)"}, {"measurement": "GI50", "setting": "[25]", "value": "619 nM (active)"}, {"measurement": "GI50", "setting": "[26]", "value": "822 nM (active)"}, {"measurement": "GI50", "setting": "[27]", "value": "255 nM (active)"}, {"measurement": "GI50", "setting": "[28]", "value": "277 nM (active)"}, {"measurement": "GI50", "setting": "[29]", "value": "321 nM (active)"}, {"measurement": "GI50", "setting": "[30]", "value": "1.61 µM (inactive)"}, {"measurement": "GI50", "setting": "[31]", "value": "346 nM (active)"}, {"measurement": "GI50", "setting": "[32]", "value": "565 nM (active)"}, {"measurement": "GI50", "setting": "[33]", "value": "773 nM (active)"}, {"measurement": "GI50", "setting": "[34]", "value": "200 nM (active)"}, {"measurement": "GI50", "setting": "[35]", "value": "191 nM (active)"}, {"measurement": "GI50", "setting": "[36]", "value": "156 nM (active)"}, {"measurement": "GI50", "setting": "[37]", "value": "631 nM (active)"}, {"measurement": "GI50", "setting": "[38]", "value": "307 nM (active)"}, {"measurement": "GI50", "setting": "[39]", "value": "1.63 µM (inactive)"}, {"measurement": "GI50", "setting": "[40]", "value": "647 nM (active)"}, {"measurement": "GI50", "setting": "[41]", "value": "519 nM (active)"}, {"measurement": "GI50", "setting": "[42]", "value": "533 nM (active)"}, {"measurement": "GI50", "setting": "[43]", "value": "458 nM (active)"}, {"measurement": "GI50", "setting": "[44]", "value": "377 nM (active)"}, {"measurement": "GI50", "setting": "[45]", "value": "312 nM (active)"}, {"measurement": "GI50", "setting": "[46]", "value": "374 nM (active)"}, {"measurement": "GI50", "setting": "[47]", "value": "482 nM (active)"}, {"measurement": "GI50", "setting": "[48]", "value": "332 nM (active)"}, {"measurement": "GI50", "setting": "[49]", "value": "452 nM (active)"}, {"measurement": "GI50", "setting": "[50]", "value": "450 nM (active)"}, {"measurement": "GI50", "setting": "[51]", "value": "1.24 µM (inactive)"}, {"measurement": "GI50", "setting": "[52]", "value": "568 nM (active)"}, {"measurement": "GI50", "setting": "[53]", "value": "863 nM (active)"}, {"measurement": "GI50", "setting": "[54]", "value": "1.07 µM (active)"}, {"measurement": "GI50", "setting": "[55]", "value": "210 nM (active)"}, {"measurement": "GI50", "setting": "[56]", "value": "340 nM (active)"}, {"measurement": "GI50", "setting": "[57]", "value": "441 nM (active)"}]}]}
